Data reported in patent publication US11241440B2, “Dihydrooxadiazine compounds for treating infections and cancer” (VALORALIA I MÁS D, SL, priority 2016, dated 2022).

Experiments:
N. carnea = assay: Kirby-Bauer disk diffusion susceptibility test; assay type: cell-based, Nocardia carnea; conditions: N. carnea; 100 μg/disc; zone of inhibition
T. pulmonis = assay: Kirby-Bauer disk diffusion susceptibility test; assay type: cell-based, Tsukamurella pulmonis; conditions: T. pulmonis; 100 μg/disc; zone of inhibition
S. epidermidis = assay: Kirby-Bauer disk diffusion susceptibility test; assay type: cell-based, Staphylococcus epidermidis; conditions: S. epidermidis; 100 μg/disc; zone of inhibition
[1] = tested on: HIV virus (NL4.3-Ren) and HIV virus pseudotyped with the envelope of VSV (NL4.3-VSV-Luc); assay: Virus entry test, HIV and VSV-pseudotyped HIV in parallel; assay type: cell-based; conditions: NL4.3-Ren and NL4.3-VSV-Luc in parallel
[2] = tested on: recombinant herpesvirus FTKGF; assay: Fluorescence antiviral assay in Vero cells; assay type: cell-based, herpes simplex 1 virus; conditions: 0.01 MOI, 48 hours
Method: In the antiviral assay a special culture plate for fluorescence assays has been used, cultivated with Vero cells (200,000 cells/ml) and infected with the recombinant herpesvirus FTKGF at 0.01 MOI (Multiplicity of infection). For the standard curve (inhibition curve pattern), increasing concentrations of a known inhibitor of HSV infection, the phosphonoacetic acid (PAA), from 0 to 200 μg/ml, were used. The compound was tested at concentrations of […] over the virus. After 48 hours, the fluorescence intensity of FTKGF (reduction in fluorescence levels) in the plate reader Synergy HT Microplate Reader was measured.

[3] = tested on: XGF-N (PRG-NIA3 deficient in the envelope glycoprotein gG); assay type: cell-based, porcine pseudorabies virus (PRV)
[4] = tested on: XGF-G (gG-deficient PRV gIS8); assay type: cell-based, porcine pseudorabies virus (PRV)
T98G = assay: MTT assay; assay type: cell-based
Excerpt: This compound has a purple hue.
All tests are always in triplicate.
In Table VIII, quantification of the best IC50 is shown (concentration of compound that inhibits 50% of cell growth) using GraphPad Prism program.

NCI-H1299 = assay: MTT assay; assay type: cell-based; conditions: Homo sapiens, 48 hours
HSV-1, strain F = conditions: compound 2 μM
[5] = tested on: all tumor cell lines tested; assay: MTT assay, tumor cell lines of Table VII taken together

CCCCCC1=NN(C(=O)CCO)OC(CCCCC)C1 (stereo not drawn) [Compound, 1-(4,6-dipentyl-5,6-dihydro-2H-1,2,3-oxadiazin-2-yl)-3-hydroxypropan-1-one]
Activity (mm), 100 μg/disc (N. carnea): 48-50 mm
Activity (mm), 100 μg/disc (T. pulmonis): 49-52 mm
Activity (mm), 100 μg/disc (S. epidermidis): 16-18 mm
inhibition of HIV and VSV-pseudotyped HIV (dependence on virus entry) [1]: inhibited both viruses with the same potency
inhibition at 0.2 µM ([2]; 200 nM): 60%
inhibition at 0.4 µM ([2]; 400 nM): 92%
reduction of the titer [3]: 1 logarithm
reduction of the titer [4]: 0.7 logarithms
concentration at which inhibition is obtained (T98G): 50 nM
optimal concentration of inhibition (T98G): 100 nM
IC50 (T98G; Homo sapiens, 48 hours): 0.106 µM
IC50 (NCI-H1299): 0.192 µM
reduction of the titer (HSV-1, strain F): 1.5 logarithms
antitumoral activity ([5]; all tumor cell lines tested): exhibited activity in all tumor cell lines tested
concentration at which inhibition began to be relevant ([5]; rest of the cell lines (other than CAL33 and T98G)): 100 nM
